We go through 1 molecule from patent US20040248905A1, “6-Substituted pyrazolo [3,4-d] pyrimidin-4-ones useful as cyclin dependent kinase inhibitors” (priority 2001, published 2004).

Turning to `CC(C)c1[nH]n(-c2c(Cl)cc(Cl)cc2Cl)c2nc(Cc3ccc(NC(=O)OCCCN(C)C)cc3)nc(=O)c1-2` [Example 1, 1-(2,4,6-trichlorophenyl)-3-isopropyl-6-(4-(3-(N,N-dimethylamino)prop-1-yloxycarbonylamino)benzyl)pyrazolo[3,4-d]pyrimidin-4-one], the melting point lay within 200 to 202 °C.
